Measured values taken from patent US5336686A, “17 Methylene lactones of steroids” (Roussel-Uclaf, priority 1992, dated 1994).

Assays:
[1] = molecular target: T1, Progestogen Receptor of Rabbit's Uterus (Oryctolagus cuniculus, UniProt P06186); experiment: Progestogen receptor of rabbit's uterus, relative bond affinity (RBA); format: binding; settings: vs tritiated Product R; for relative bond affinity (RBA), Progestogen, 2 H: incubation 2 H at 0° C.; for relative bond affinity (RBA), Progestogen, 24 H: incubation 24 H at 0° C.
T1 construct: The uteri were removed, weighed and homogenized at 0° C; from tissue; host or cells: uterus of estradiol-treated impubic rabbits, 105,000 g supernatant (cytosol)
T1 sequence (P06186 1-930): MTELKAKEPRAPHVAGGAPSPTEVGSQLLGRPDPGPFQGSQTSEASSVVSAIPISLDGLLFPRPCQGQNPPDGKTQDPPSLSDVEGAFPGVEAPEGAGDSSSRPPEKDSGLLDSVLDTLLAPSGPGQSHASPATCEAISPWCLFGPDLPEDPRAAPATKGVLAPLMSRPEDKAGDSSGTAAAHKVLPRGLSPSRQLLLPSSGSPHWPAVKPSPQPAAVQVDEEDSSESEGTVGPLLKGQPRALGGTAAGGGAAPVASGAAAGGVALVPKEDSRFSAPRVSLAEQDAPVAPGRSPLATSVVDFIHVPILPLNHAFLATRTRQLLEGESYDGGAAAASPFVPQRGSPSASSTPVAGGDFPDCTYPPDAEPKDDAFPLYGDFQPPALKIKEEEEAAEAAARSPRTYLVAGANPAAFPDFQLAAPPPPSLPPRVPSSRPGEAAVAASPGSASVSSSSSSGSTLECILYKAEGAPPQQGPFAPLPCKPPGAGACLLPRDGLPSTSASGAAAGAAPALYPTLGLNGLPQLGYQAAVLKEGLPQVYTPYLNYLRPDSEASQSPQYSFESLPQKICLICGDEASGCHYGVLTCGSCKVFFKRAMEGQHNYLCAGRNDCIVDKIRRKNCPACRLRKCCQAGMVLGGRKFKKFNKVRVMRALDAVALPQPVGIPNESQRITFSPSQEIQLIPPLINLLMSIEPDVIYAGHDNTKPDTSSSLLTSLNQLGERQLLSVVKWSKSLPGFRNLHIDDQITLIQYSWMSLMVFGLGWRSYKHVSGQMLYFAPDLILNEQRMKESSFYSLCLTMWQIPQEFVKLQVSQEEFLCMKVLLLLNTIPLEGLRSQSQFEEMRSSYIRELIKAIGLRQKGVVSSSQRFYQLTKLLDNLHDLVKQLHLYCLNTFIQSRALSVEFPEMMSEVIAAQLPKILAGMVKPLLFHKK
Experimental: Impubic rabbits weighing about 1 kg received a cutaneous application of […] of estradiol and 5 days after this treatment, the animals were killed. The uteri were removed, weighed and homogenized at 0° C., using a Potter teflon flask in a buffered TS solution (10 mM Tris, 0.25 M saccharose, HCl pH 7.4) (1 g of tissue per 50 ml of TS). The homogenate was then ultracentrifuged (105,000 g×90 min) at 0° C. The aliquots of the supernatant were incubated at 0° C. for a time t, with a constant concentration (T) of tritiated Product R (17,21-dimethyl-19-nor-Δ^4,9 -pregnadiene-3,20-dione) in the presence of increasing concentrations (0-2,500×10^-9 M) either of cold R, or of cold progesterone, or of cold product to be tested. The concentration of bound tritiated R (B) was then measured in each incubate by the technique of adsorption with carbon dextran.
(§1) The calculation of the relative bond affinity (RBA) was identical for both receptors.
(§2) The following 2 curves were drawn: the percentage of bound tritiated hormone B/T as a function of the logarithm of the concentration of the cold reference hormone and B/T as a function of the logarithm of the concentration of the cold tested product. The straight line of the equation [formula] was determined. B/T max=Percentage of bound tritiated hormone for an incubation of this tritiated hormone at the concentration (T).
(§3) B/T min=Percentage of the bound tritiated hormone for an incubation of this tritiated hormone at the concentration (T) in the presence of a large excess of cold hormone (2,500×10^-9 M).
(§4) The intersections of the straight line I50 and the curves enabled the concentrations of cold reference hormone (CH) and cold tested product (CX) which inhibited the bonding of the tritiated hormone on the receptor by 50% to be evaluated.
(§5) The relative bond affinity (RBA) of the tested product was determined by the equation: [formula]

[2] = molecular target: T2, Glucocorticoid Receptor of Rat's Thymus (Rattus norvegicus, UniProt P06536); experiment: Glucocorticoid receptor of rat's thymus, relative bond affinity (RBA); format: binding; settings: vs tritiated dexamethasone; for relative bond affinity (RBA), Glucocorticoid, 4 H: incubation 4 H at 0° C.; for relative bond affinity (RBA), Glucocorticoid, 24 H: incubation 24 H at 0° C.
T2 construct: The thymuses were removed and homogenized at 0° C; from tissue; host or cells: thymus of adrenalectomized male Sprague-Dawley rats, 105,000 g supernatant (cytosol)
T2 sequence (P06536 1-795): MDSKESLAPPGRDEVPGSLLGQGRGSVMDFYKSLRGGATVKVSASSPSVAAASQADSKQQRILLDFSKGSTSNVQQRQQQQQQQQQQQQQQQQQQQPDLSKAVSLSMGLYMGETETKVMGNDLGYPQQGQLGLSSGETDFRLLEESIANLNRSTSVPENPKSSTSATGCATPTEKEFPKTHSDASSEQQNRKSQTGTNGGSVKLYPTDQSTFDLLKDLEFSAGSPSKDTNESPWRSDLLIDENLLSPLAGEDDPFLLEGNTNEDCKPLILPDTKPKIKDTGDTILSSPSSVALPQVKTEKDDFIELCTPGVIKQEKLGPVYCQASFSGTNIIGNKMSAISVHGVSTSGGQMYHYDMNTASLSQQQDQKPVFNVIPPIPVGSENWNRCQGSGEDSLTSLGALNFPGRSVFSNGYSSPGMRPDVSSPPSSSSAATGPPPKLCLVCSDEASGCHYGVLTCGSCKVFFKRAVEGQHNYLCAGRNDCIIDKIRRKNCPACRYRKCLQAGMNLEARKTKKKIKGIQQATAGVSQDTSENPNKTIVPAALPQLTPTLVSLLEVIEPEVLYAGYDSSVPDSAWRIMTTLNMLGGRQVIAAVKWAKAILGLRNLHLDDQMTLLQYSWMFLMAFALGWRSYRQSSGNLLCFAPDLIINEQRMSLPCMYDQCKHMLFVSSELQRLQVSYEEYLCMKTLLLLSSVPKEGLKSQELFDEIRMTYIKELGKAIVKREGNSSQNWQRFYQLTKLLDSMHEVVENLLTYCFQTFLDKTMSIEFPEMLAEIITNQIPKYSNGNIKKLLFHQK
Experimental: Male Sprague-Dawley EOPS rats weighing 160 to 200 g were suprarenalectomized and 4 to 8 days after this removal, the animals were killed. The thymuses were removed and homogenized at 0° C. in a 10 mM Tris, 0.15M saccharose, 2 mM dithiothreitol, HCl pH 7.4 buffer using a Potter polytetra-fluoroethylene flask (1 g of tissue per 10 ml of TS). The homogenate was ultracentrifuged (105,000 g×90 min) at 0° C. and the aliquots of the supernatant were incubated at 0° C. for a time (t) with a constant concentration (T) of tritiated dexamethasone in the presence of increasing concentrations (0-2,500×10^-9 M)either of cold dexamethasone, or the cold product to be tested. The concentration of the bound tritiated dexamethasone (B) was measured in each incubate by the technique of adsorption with carbon dextran.
as §1, §2, §3, §4, §5

[3] = tested on: Thymocytes of suprarenalectomized rats; experiment: Antiglucocorticoid activity: tritiated uridine incorporation in thymocytes with dexamethasone; format: cell-based, rat; settings: for inhibition at 1 µM / inhibition at 0.1 µM / inhibition at 0.01 µM: Rattus norvegicus, Thymocyte, 5.10^-8 M dexamethasone, 37° C., 3 hours, read-out: % inhibition of the effect of the Dexamethasone; for inhibition at 1 µM: product at 10^-6 M; for inhibition at 0.1 µM: product at 10^-7 M; for inhibition at 0.01 µM: product at 10^-8 M
Experimental: The technique used was derived from the method of Dausse et al, Molecular Pharmacology, Vol. 13, p. 948-955 (1977) ("the relationship between glucocorticoid structure and effects upon Thymocytes"), for the thymocytes of mice. Thymocytes of suprarenalectomized rats were incubated at 37° C. for 3 hours in a nutritive medium containing 5.10^-8 M of dexamethasone in the presence or not of a product to be studied at different concentrations. Tritiated uridine was added, and the incubation was continued for one hour. The incubates were cooled, treated with a 5% solution of trichloroacetic acid, filtered on Whatman GF/A paper and washed three times using a solution of 5% trichloroacetic acid. The radioactivity retained by the filter paper was determined.

relative bond affinity (RBA), Progestogen, 2 H [1]	relative bond affinity (RBA), Progestogen, 24 H [1]	relative bond affinity (RBA), Glucocorticoid, 4 H [2]	relative bond affinity (RBA), Glucocorticoid, 24 H [2]	SMILES	inhibition at 1 µM [3]	inhibition at 0.1 µM [3]	inhibition at 0.01 µM [3]	incorporation of tritiated uridine ([3]; effect of dexamethasone itself, in words)
32	21	135	94	C=C1C[C@@]2(CC[C@H]3[C@@H]4CCC5=CC(=O)CCC5=C4[C@@H](c4ccc(N(C)C)cc4)C[C@@]32C)OC1=O [Example 1, γ-lactone of 11β-[4-(dimethylamino)phenyl] 21-methylene 19-nor 17α-Δ^4,9-pregnadiene-17β-ol-3-one-21-carboxylic acid]	116%	104%	71%	
86	36	136	59	C=C1C[C@]2(CC[C@H]3[C@@H]4CCC5=CC(=O)CCC5=C4[C@@H](c4ccc(N(C)C)cc4)C[C@@]32C)OC1=O [Example 2, γ-Lactone of 11β-[4-(dimethylamino)phenyl]21methylene-19-nor 17β-Δ^4,9-pregnadiene-17α-ol-3-one-21-carboxylic acid]				
				C=C1C[C@@]2(CC[C@H]3[C@@H]4CCC5=CC(=O)CCC5=C4[C@@H](c4ccc(SC)cc4)C[C@@]32C)OC1=O [Example 3, γ-lactone of 11β-[4-(methylthio)phenyl]21-methylene 19-nor-17α-Δ^4,9-pregnadiene-17β-ol-3-one-21-carboxylic acid]	133%	69%	24%	
				C[C@@H]1C[C@H]2[C@@H]3CCC4=CC(=O)C=C[C@]4(C)[C@@]3(F)[C@@H](O)C[C@]2(C)[C@@]1(O)C(=O)CO [dexamethasone, reference compound]				decrease
